In patent US20110288174A1, “Monohydrate of 4-(phenyl)ethyl]-amino}methyl)benzoic acid” (BAYER SCHERING PHARMA AKTIENGESELLSCHAFT, priority 2008, published 2011):

Assay: Stability of the solid forms (thermodynamic and storage stability)
Assay type: physicochemical
Conditions: for thermodynamic stability of the crystal form: solid form of the compound of the formula (I)

| storage stability (even after processing to aqueous suspensions) | thermodynamic stability of the crystal form | SMILES |
| --- | --- | --- |
| storage-stable | thermodynamically stable | O=C(O)CCCCN(CCc1ccccc1OCc1ccc(CCc2ccccc2)cc1)Cc1ccc(C(=O)O)cc1 [monohydrate A, monohydrate of 4-({(4-carboxybutyl)[2-(2-{[4-(2-phenylethyl)benzyl]oxy}phenyl)ethyl]amino}methyl)benzoic acid in form A] |
| – | metastable | O=C(O)CCCCN(CCc1ccccc1OCc1ccc(CCc2ccccc2)cc1)Cc1ccc(C(=O)O)cc1 [modification IV, 4-({(4-Carboxybutyl)[2-(2-{[4-(2-phenylethyl)benzyl]oxy}phenyl)ethyl]amino}methyl)benzoic acid] |
